For experiment [1], the target named is T1, Enoyl-[acyl-carrier-protein] reductase [NADH] (Mycobacterium tuberculosis, UniProt P9WGR1).
T1 sequence (P9WGR1 whole entry): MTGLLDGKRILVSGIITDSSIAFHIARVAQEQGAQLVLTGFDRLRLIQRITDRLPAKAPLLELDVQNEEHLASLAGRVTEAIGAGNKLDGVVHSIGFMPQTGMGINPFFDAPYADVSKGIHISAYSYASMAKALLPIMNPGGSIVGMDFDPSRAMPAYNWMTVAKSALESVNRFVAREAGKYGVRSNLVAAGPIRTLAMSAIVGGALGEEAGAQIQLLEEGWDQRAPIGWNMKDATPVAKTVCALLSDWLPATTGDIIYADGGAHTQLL
Description: Inhibition of Mycobacterium tuberculosis InhA.

Experiment [2] concerns the target T2, Enoyl-[acyl-carrier-protein] reductase [NADH] (Mycobacterium tuberculosis) (UniProt P9WGR1).
T2 sequence (whole entry): T1 sequence (P9WGR1 whole entry)
Nature of the experiment: Inhibition of Mycobacterium tuberculosis InhA at 700 uM.

For experiment [3], the target named is T2, Enoyl-[acyl-carrier-protein] reductase [NADH] (Mycobacterium tuberculosis). Description: Inhibition of Mycobacterium tuberculosis InhA at 100 uM.

A word on the IC50: it is the concentration needed to halve the response being measured. Read a high IC50 as a need for much substance. The molecule `NC(=O)c1cc([C@@H]2O[C@H](COP(=O)(O)OP(=O)(O)OC[C@H]3O[C@@H](n4cnc5c(N)ncnc54)[C@H](O)[C@@H]3O)[C@@H](O)[C@H]2O)ccc1Oc1ccccc1` yielded an IC50 in experiment [1] of 27 µM.
One may read the inhibition as the share of the control response that was lost under treatment. For `NC(=O)c1cc([C@@H]2O[C@H](CO)[C@@H](O)[C@H]2O)ccc1Oc1ccccc1`, the inhibition in experiment [2] was determined as 25%.
In turn, `NC(=O)c1cc([C@@H]2O[C@H](COP(=O)(O)O)[C@@H](O)[C@H]2O)ccc1Oc1ccccc1` showed an inhibition in experiment [3] of 12%.

The record behind these values is ChEMBL document CHEMBL1140643, “Synthesis of 4-phenoxybenzamide adenine dinucleotide as NAD analogue with inhibitory activity against enoyl-ACP reductase (InhA) of Mycobacterium tuberculosis” (Bioorg Med Chem Lett, 2007).
